The results in this text go back to US8916567B2, “Certain crystalline hydrates, pharmaceutical compositions thereof and methods for preparation and use thereof” (Universal Technology Alliance, Inc., priority 2009, dated 2014).

The series in a line: Stability under high temperature and high humidity (relative humidity 75%, 40° C.). It counts as physicochemical. The protocol:
In order to further evaluate the effect of temperature, humidity and light on the quality of the crystalline compounds of the present disclosure, the hydrates were placed in a dessicator with a relative humidity of 75% and at a constant temperature of 40° C. The samples were then collected at 1, 2, 3, and 6 months. Results are shown in Tables 10-14, wherein the “related substances” mean all of the ingredients in a sample except the active material. The content of the related substances in a sample was measure by HPLC in accordance to the Chinese Pharmacopeia (2005 edition, Part II, Appendix V D).

The mark [1] stands for this setting: water content by TGA, 0 month, hydrate.
The mark [2] stands for this setting: water content by TGA, 1 month, hydrate.
Where [3] appears, read: water content by TGA, 2 months, hydrate.
[4] abbreviates: water content by TGA, 3 months, hydrate.
[5] abbreviates: water content by TGA, 6 months, hydrate.

For the compound `CC(=O)NC[C@H]1CN(c2ccc(N3CCN(c4ccccc4)CC3)c(F)c2)C(=O)O1` [1/12 hydrate, (S)—[N-3-(3′-fluoro-4′-(4″-phenylpiperazinyl))phenyl-2-oxo-5-oxazolidinyl]methyl acetamide 1/12 hydrate], the Characters entry (0 month) is recorded as “White powder”; the Characters result (1 month) is “White powder”; the Characters entry (2 months) is on record as “White powder”; the Characters entry (3 months) was “White powder”; the Characters entry (6 months) is on record as “White powder”. Also, the “Related substances (%)” value by setting is: (0 month, HPLC) 0.94%; (1 month, HPLC) 0.88%; (2 months, HPLC) 0.90%; (3 months, HPLC) 0.92%; (6 months, HPLC) 0.93%. Further, the “TGA (%)” value stood at 0.40% (0 month, hydrate); 0.38% (1 month, hydrate); 0.39% (2 months, hydrate); 0.40% (3 months, hydrate); 0.42% (6 months, hydrate).
Take `CC(=O)NC[C@H]1CN(c2ccc(N3CCN(c4ccccc4)CC3)c(F)c2)C(=O)O1` [2/7 hydrate, (S)—[N-3-(3′-fluoro-4′-(4″-phenylpiperazinyl))phenyl-2-oxo-5-oxazolidinyl]methyl acetamide 2/7 hydrate]: the Characters result runs as follows: (0 month) “White powder”; (1 month) “White powder”; (2 months) “White powder”; (3 months) “White powder”; (6 months) “White powder”. The “Related substances (%)” value (by HPLC, 0 month, hydrate) turned out to be 0.91%; the “Related substances (%)” value (by HPLC, 1 month, hydrate) was 0.89%; the “Related substances (%)” value (by HPLC, 2 months, hydrate) turned out to be 0.90%; the “Related substances (%)” value (by HPLC, 3 months, hydrate) was found to be 0.91%; the “Related substances (%)” value (by HPLC, 6 months, hydrate) was determined as 0.95%. Further, the “TGA (%)” value worked out at 1.20% under setting [1]; 1.21% under setting [2]; 1.19% under setting [3]; 1.23% under setting [4]; 1.21% under setting [5].
Regarding `CC(=O)NC[C@H]1CN(c2ccc(N3CCN(c4ccccc4)CC3)c(F)c2)C(=O)O1` [3/4 hydrate, (S)—[N-3-(3′-fluoro-4′-(4″-phenylpiperazinyl))phenyl-2-oxo-5-oxazolidinyl]methyl acetamide 3/4 hydrate], the Characters entry (0 month) is listed as “White powder”; the Characters entry (1 month) is “White powder”; the Characters result (2 months) is “White powder”; the Characters entry (3 months) is given as “White powder”; the Characters entry (6 months) is “White powder”. Moreover, the “Related substances (%)” value reads like this: (0 month, HPLC) 0.94%; (1 month, HPLC) 0.88%; (2 months, HPLC) 0.90%; (3 months, HPLC) 0.92%; (6 months, HPLC) 0.93%. Besides, the “TGA (%)” value by setting is: (0 month, listed as ¾ hydrate, hydrate) 3.10%; (1 month, listed as ¾ hydrate, hydrate) 3.11%; (2 months, listed as ¾ hydrate, hydrate) 3.10%; (3 months, listed as ¾ hydrate, hydrate) 3.09%; (6 months, listed as ¾ hydrate, hydrate) 3.10%.
For `CC(=O)NC[C@H]1CN(c2ccc(N3CCN(c4ccccc4)CC3)c(F)c2)C(=O)O1` [½ hydrate, (S)—[N-3-(3′-fluoro-4′-(4″-phenylpiperazinyl))phenyl-2-oxo-5-oxazolidinyl]methyl acetamide 1/2 hydrate], the Characters result (0 month) is on record as “White powder”; the Characters result (1 month) was “White powder”; the Characters result (2 months) is “White powder”; the Characters result (3 months) is given as “White powder”; the Characters result (6 months) is “White powder”. For the same compound, the “Related substances (%)” value was 0.90% (by HPLC, 0 month, hydrate); 0.88% (by HPLC, 1 month, hydrate); 0.92% (by HPLC, 2 months, hydrate); 0.90% (by HPLC, 3 months, hydrate); 0.94% (by HPLC, 6 months, hydrate). For the same compound, the “TGA (%)” value turned out to be 2.14% under setting [1]; 2.15% under setting [2]; 2.16% under setting [3]; 2.20% under setting [4]; 2.10% under setting [5].
Turning to `CC(=O)NC[C@H]1CN(c2ccc(N3CCN(c4ccccc4)CC3)c(F)c2)C(=O)O1` [⅖ hydrate, (S)—[N-3-(3′-fluoro-4′-(4″-phenylpiperazinyl))phenyl-2-oxo-5-oxazolidinyl]methyl acetamide 2/5 hydrate], the Characters entry reads like this: (0 month) “White powder”; (1 month) “White powder”; (2 months) “White powder”; (3 months) “White powder”; (6 months) “White powder”. Besides, the “Related substances (%)” value runs as follows: (by HPLC, 0 month, hydrate) 0.93%; (by HPLC, 1 month, hydrate) 0.89%; (by HPLC, 2 months, hydrate) 0.91%; (by HPLC, 3 months, hydrate) 0.93%; (by HPLC, 6 months, hydrate) 0.92%. In addition, the “TGA (%)” value is, setting by setting: under setting [1], 1.71%; under setting [2], 1.73%; under setting [3], 1.70%; under setting [4], 1.72%; under setting [5], 1.72%.
